Results as given in PubChem BioAssay (NCI).
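Interpolation was linear, between the two tested concentrations surrounding the appropriate level; five concentrations were tested over 48 hours in 96-well plates. Here, GI50 denotes the concentration required for 50% inhibition of growth. TGI: concentration producing complete growth inhibition.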

What was measured:
Assay in all cases: NCI anticancer screen, dose series, 48 h
SK-MEL-2 melanoma = tested on: SK-MEL-2 melanoma
RXF 393 renal = tested on: RXF 393 renal
UO-31 renal = tested on: UO-31 renal
UACC-62 melanoma = tested on: UACC-62 melanoma
DU-145 prostate = tested on: DU-145 prostate
NCI-H460 lung = tested on: NCI-H460 lung
UACC-257 melanoma = tested on: UACC-257 melanoma
MDA-MB-435 = tested on: MDA-MB-435
U251 CNS = tested on: U251 CNS
HOP-92 NSCLC = tested on: HOP-92 NSCLC
TK-10 renal = tested on: TK-10 renal
HCC-2998 colon = tested on: HCC-2998 colon
SF-539 CNS = tested on: SF-539 CNS
BT-549 breast = tested on: BT-549 breast
SK-MEL-5 melanoma = tested on: SK-MEL-5 melanoma
SK-MEL-28 melanoma = tested on: SK-MEL-28 melanoma
NCI-H522 lung = tested on: NCI-H522 lung
HT29 colon = tested on: HT29 colon
SF-295 CNS = tested on: SF-295 CNS
SW-620 colon = tested on: SW-620 colon
SF-268 CNS = tested on: SF-268 CNS
SN12C renal = tested on: SN12C renal
NCI-H23 lung = tested on: NCI-H23 lung
A549 NSCLC = tested on: A549 NSCLC
MALME-3M melanoma = tested on: MALME-3M melanoma
COLO 205 colon = tested on: COLO 205 colon
SNB-75 CNS = tested on: SNB-75 CNS
HCT-116 colon = tested on: HCT-116 colon
RPMI-8226 leukemia = tested on: RPMI-8226 leukemia
OVCAR-3 ovarian = tested on: OVCAR-3 ovarian
HOP-62 NSCLC = tested on: HOP-62 NSCLC
HCT-15 colon = tested on: HCT-15 colon
CAKI-1 renal = tested on: CAKI-1 renal
MDA-MB-231 breast = tested on: MDA-MB-231 breast
HL-60(TB) leukemia = tested on: HL-60(TB) leukemia
MOLT-4 leukemia = tested on: MOLT-4 leukemia
EKVX NSCLC = tested on: EKVX NSCLC
A498 renal = tested on: A498 renal
IGROV1 ovarian = tested on: IGROV1 ovarian
T-47D breast = tested on: T-47D breast
SNB-19 CNS = tested on: SNB-19 CNS
ACHN renal = tested on: ACHN renal
OVCAR-5 ovarian = tested on: OVCAR-5 ovarian
PC-3 prostate = tested on: PC-3 prostate
MCF7 breast = tested on: MCF7 breast
SR leukemia = tested on: SR leukemia
LOX IMVI melanoma = tested on: LOX IMVI melanoma
OVCAR-8 ovarian = tested on: OVCAR-8 ovarian
786-0 renal = tested on: 786-0 renal
SK-OV-3 ovarian = tested on: SK-OV-3 ovarian
KM12 colon = tested on: KM12 colon
NCI/ADR-RES ovarian = tested on: NCI/ADR-RES ovarian
M14 melanoma = tested on: M14 melanoma
OVCAR-4 ovarian = tested on: OVCAR-4 ovarian
CCRF-CEM leukemia = tested on: CCRF-CEM leukemia
HS 578T breast = tested on: HS 578T breast
NCI-H226 lung = tested on: NCI-H226 lung
K-562 leukemia = tested on: K-562 leukemia

COc1ccc2c(c1OC)-c1c(c3ccc([N+](=O)[O-])cc3c(=O)n1CCCN)C2=O
GI50 (SK-MEL-2 melanoma): 4.56 µM
TGI (SK-MEL-2 melanoma): 9.77 µM
GI50 (RXF 393 renal): 4.32 µM
TGI (RXF 393 renal): 10.1 µM
GI50 (UO-31 renal): 3.81 µM
TGI (UO-31 renal): 7.89 µM
GI50 (UACC-62 melanoma): 3.52 µM
TGI (UACC-62 melanoma): 7.32 µM
GI50 (DU-145 prostate): 3.36 µM
TGI (DU-145 prostate): 7.8 µM
GI50 (NCI-H460 lung): 3.47 µM
TGI (NCI-H460 lung): 12.3 µM
GI50 (UACC-257 melanoma): 4.97 µM
TGI (UACC-257 melanoma): 9.74 µM
GI50 (MDA-MB-435): 12.7 µM
TGI (MDA-MB-435): 28.2 µM
GI50 (U251 CNS): 1.83 µM
TGI (U251 CNS): 5.76 µM
GI50 (HOP-92 NSCLC): 12.3 µM
TGI (HOP-92 NSCLC): 27.1 µM
GI50 (TK-10 renal): 5.72 µM
TGI (TK-10 renal): 12 µM
GI50 (HCC-2998 colon): 3.87 µM
TGI (HCC-2998 colon): 7.8 µM
GI50 (SF-539 CNS): 4.42 µM
TGI (SF-539 CNS): 9.02 µM
GI50 (BT-549 breast): 4.19 µM
TGI (BT-549 breast): 9.24 µM
GI50 (SK-MEL-5 melanoma): 4.33 µM
TGI (SK-MEL-5 melanoma): 8.82 µM
GI50 (SK-MEL-28 melanoma): 5.34 µM
TGI (SK-MEL-28 melanoma): 10.4 µM
GI50 (NCI-H522 lung): 3.54 µM
TGI (NCI-H522 lung): 9.33 µM
GI50 (HT29 colon): 1.6 µM
TGI (HT29 colon): 8 µM
GI50 (SF-295 CNS): 5.72 µM
TGI (SF-295 CNS): 11.5 µM
GI50 (SW-620 colon): 0.573 µM
TGI (SW-620 colon): 4.81 µM
GI50 (SF-268 CNS): 3.54 µM
TGI (SF-268 CNS): 13.6 µM
GI50 (SN12C renal): 3.79 µM
TGI (SN12C renal): 7.86 µM
GI50 (NCI-H23 lung): 4.7 µM
TGI (NCI-H23 lung): 9.19 µM
GI50 (A549 NSCLC): 4.37 µM
TGI (A549 NSCLC): 9.27 µM
GI50 (MALME-3M melanoma): 4.97 µM
TGI (MALME-3M melanoma): 10.5 µM
GI50 (COLO 205 colon): > 100 µM
TGI (COLO 205 colon): > 100 µM
TGI (SNB-75 CNS): 1.56 µM
GI50 (HCT-116 colon): 4.99 µM
TGI (HCT-116 colon): 9.23 µM
GI50 (RPMI-8226 leukemia): 1.01 µM
TGI (RPMI-8226 leukemia): 3.32 µM
GI50 (OVCAR-3 ovarian): 16.2 µM
TGI (OVCAR-3 ovarian): 32.6 µM
GI50 (HOP-62 NSCLC): 10.7 µM
TGI (HOP-62 NSCLC): 23.9 µM
GI50 (HCT-15 colon): 3.37 µM
TGI (HCT-15 colon): 7.11 µM
GI50 (CAKI-1 renal): 9.49 µM
TGI (CAKI-1 renal): 24.7 µM
GI50 (MDA-MB-231 breast): 1.87 µM
TGI (MDA-MB-231 breast): 3.95 µM
GI50 (HL-60(TB) leukemia): 1.35 µM
TGI (HL-60(TB) leukemia): 2.63 µM
GI50 (MOLT-4 leukemia): 0.692 µM
TGI (MOLT-4 leukemia): 3.68 µM
GI50 (EKVX NSCLC): 4.98 µM
TGI (EKVX NSCLC): 11 µM
GI50 (A498 renal): 3.03 µM
TGI (A498 renal): 14.3 µM
GI50 (IGROV1 ovarian): 2.02 µM
TGI (IGROV1 ovarian): 6.78 µM
TGI (T-47D breast): > 20.1 µM
TGI (SNB-19 CNS): > 20.2 µM
GI50 (ACHN renal): 0.749 µM
TGI (ACHN renal): 3.33 µM
GI50 (OVCAR-5 ovarian): 5.31 µM
TGI (OVCAR-5 ovarian): 9.74 µM
GI50 (PC-3 prostate): 4.59 µM
TGI (PC-3 prostate): 10.5 µM
GI50 (MCF7 breast): 1.89 µM
TGI (MCF7 breast): 13.9 µM
GI50 (SR leukemia): 0.1 µM
TGI (SR leukemia): 0.272 µM
GI50 (LOX IMVI melanoma): 3.18 µM
TGI (LOX IMVI melanoma): 7.26 µM
GI50 (OVCAR-8 ovarian): 3.53 µM
TGI (OVCAR-8 ovarian): 12.9 µM
GI50 (786-0 renal): 4.76 µM
TGI (786-0 renal): 9.22 µM
GI50 (SK-OV-3 ovarian): 7.9 µM
TGI (SK-OV-3 ovarian): 17.6 µM
GI50 (KM12 colon): 4.31 µM
TGI (KM12 colon): 10.7 µM
GI50 (NCI/ADR-RES ovarian): 4.83 µM
TGI (NCI/ADR-RES ovarian): 9.76 µM
GI50 (M14 melanoma): 7.27 µM
TGI (M14 melanoma): 20.8 µM
GI50 (OVCAR-4 ovarian): 5.49 µM
TGI (OVCAR-4 ovarian): 12.1 µM
GI50 (CCRF-CEM leukemia): 1.27 µM
TGI (CCRF-CEM leukemia): 3.64 µM
GI50 (HS 578T breast): 5.32 µM
TGI (HS 578T breast): 12 µM
GI50 (NCI-H226 lung): 3.95 µM
TGI (NCI-H226 lung): 8.79 µM
GI50 (K-562 leukemia): 1.01 µM
TGI (K-562 leukemia): 3.94 µM
